# Values quoted from earlier work, collected in patent publication US20240350678A1, “SYSTEMS AND METHODS FOR GENERATION OF HYPERPOLARIZED MATERIALS” (NVISION IMAGING TECHNOLOGIES GMBH, priority 2021, published 2024).
# Read-outs that look alike come from different tables or passages of the source.
smiles,measurement,setting,value
CC(=O)O [acetic acid],maximal mole fraction of acetic acid in n-heptane,at 14.8° C.,0.935
same,maximal mole fraction of acetic acid in n-heptane,at −29.2° C.,0.02
